Measurements: publication PMC9250534, “Synthesis and direct assay of large macrocycle diversities by combinatorial late-stage modification at picomole scale” (Nature Communications, 2022)
Where “and” joins values, the source holds several entries; their conditions need not be identical. Identical values can stand only once. Like-named read-outs stand apart in the source and are kept apart here. Values belong to the compound of their own block, whether it stands above or below them.

Key:
MDM2 [1] = target: T1, MDM2 (Homo sapiens, UniProt Q00987); assay: MDM2 binding (FP53 displacement) by HPLC fractions of resynthesized hit reactions
T1 sequence (Q00987 whole entry): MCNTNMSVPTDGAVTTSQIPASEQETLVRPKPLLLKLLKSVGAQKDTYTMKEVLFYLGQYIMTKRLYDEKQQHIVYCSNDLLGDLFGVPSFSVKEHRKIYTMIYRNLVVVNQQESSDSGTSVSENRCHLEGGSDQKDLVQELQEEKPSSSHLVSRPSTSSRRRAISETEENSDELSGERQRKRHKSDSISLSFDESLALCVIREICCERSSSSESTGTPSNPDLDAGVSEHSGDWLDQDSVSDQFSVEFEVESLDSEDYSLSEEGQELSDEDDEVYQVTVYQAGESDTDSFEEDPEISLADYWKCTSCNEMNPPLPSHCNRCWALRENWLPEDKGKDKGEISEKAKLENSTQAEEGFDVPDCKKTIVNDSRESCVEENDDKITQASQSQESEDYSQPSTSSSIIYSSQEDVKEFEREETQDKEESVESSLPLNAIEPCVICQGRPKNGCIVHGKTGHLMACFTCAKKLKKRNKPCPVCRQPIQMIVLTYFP
Method: For hits from the MDM2 screen, reactions were performed in the same way but at a 50 nmol scale, and purified with the same method but a 10–80% gradient of solvent B and over 22 min. Fractions were lyophilized and dissolved in 40 μL of DMSO, 160 μL of water was added, and 5 μL of each fraction was transferred to a 384-well plate (Nunc, 264705), and 15 μL of premixed MDM2/FP53 peptide were added (final concentrations: 1.2 μM MDM2, 50 nM FP53, 5% DMSO).

MDM2 [2] = target: T1, MDM2; assay: IC50 of purified MDM2-binding macrocycles, fluorescence polarization competition with FP53; settings: for IC50: HPLC-purified macrocycle, FP displacement of fluorescent reporter peptide; for anisotropy: replicates 1-3
Method: Volumes of 5 μL of purified macrocycles (20 mM in DMSO) were serial diluted two-fold in 100% DMSO in a low dead-volume ECHO source plate. Using acoustic droplet transfer, 150 nL of each dilution was transferred to a 384 well low volume polystyrene plate (Nunc, 264705). […] Fluorescence anisotropy was measured as described above. The percentage of bound inhibitor was calculated using the following equation4 %boundinhibitor=N−X/N−P×100 where N is the average anisotropy of the DMSO controls, X is the anisotropy value obtained for each well, and P is the average anisotropy of the unbound probe. The IC50s were determined by plotting the percent of bound inhibitor against the logarithm of the corresponding macrocycle concentration, and the curves were fitted in GraphPad Prism 6 as described above.

MDM2 [3] = target: T1, MDM2; assay: MDM2 binding screen of Libraries 3 and 4: displacement of fluorescent probe F-M8 at 750 nM macrocycle; settings: 750 nM macrocycle; crude reaction; probe F-M8
How it was run: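 Cyclic peptide scaffolds were acylated in DMSO with carboxylic acids (20 equiv.), HBTU and DABCO for 6 h at room temperature. Reactions were quenched overnight in 100 mM Tris-Cl pH 7.4, 0.01% Tween20. The fluorescein conjugate was also competed with nutlin-3a.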

MDM2 [4] = target: T1, MDM2; assay: Competition binding of M10 and nutlin-3a (F-M10 or FP53 probe displacement from MDM2, FP); settings: for F-M10 displacement (values are anisotropy): F-M10 macrocycle probe; for F-M10 displacement (values are anisotropy) / FP53 displacement (values are anisotropy): duplicates -1/-2; for FP53 displacement (values are anisotropy): FP53 linear peptide probe
Method: With the fluorescein conjugate, we also performed a competition experiment with nutlin-3a that binds to a defined hydrophobic pocket of MDM2[34] and is a precursor of nutlin-based clinical candidates.
Supplementary Figure 13. Studying the binding site of M10 by competition binding
by fluorescence polarization. The displacement was measured in two independent experiments
The displacement was measured in two

- Fraction bound (fraction fluorescent probe displaced) (MDM2 [1]; HPLC Fraction 1 of acylation reaction): 0.06
- Fraction bound (fraction fluorescent probe displaced) (MDM2 [1]; HPLC Fraction 2 of acylation reaction): 0.33
- Fraction bound (fraction fluorescent probe displaced) (MDM2 [1]; HPLC Fraction 3 of acylation reaction): 0.08
- Fraction bound (fraction fluorescent probe displaced) (MDM2 [1]; HPLC Fraction 4 of acylation reaction): -0.000869
- Fraction bound (fraction fluorescent probe displaced) (MDM2 [1]; HPLC Fraction 5 of acylation reaction): -0.0216
- Fraction bound (fraction fluorescent probe displaced) (MDM2 [1]; HPLC Fraction 6 of acylation reaction): 0.02
- Fraction bound (fraction fluorescent probe displaced) (MDM2 [1]; HPLC Fraction 7 of acylation reaction): 0.02
- Fraction bound (fraction fluorescent probe displaced) (MDM2 [1]; HPLC Fraction 8 of acylation reaction): 0.02
- Fraction bound (fraction fluorescent probe displaced) (MDM2 [1]; HPLC Fraction 9 of acylation reaction): 0.02
- Fraction bound (fraction fluorescent probe displaced) (MDM2 [1]; HPLC Fraction 10 of acylation reaction): 0.08
- Fraction bound (fraction fluorescent probe displaced) (MDM2 [1]; HPLC Fraction 11 of acylation reaction): -0.000869
- Fraction bound (fraction fluorescent probe displaced) (MDM2 [1]; HPLC Fraction 12 of acylation reaction): -0.06
- Fraction bound (fraction fluorescent probe displaced) (MDM2 [1]; HPLC Fraction 13 of acylation reaction): -0.0422
- Fraction bound (fraction fluorescent probe displaced) (MDM2 [1]; HPLC Fraction 14 of acylation reaction): 0.29
- Fraction bound (fraction fluorescent probe displaced) (MDM2 [1]; HPLC Fraction 15 of acylation reaction): -0.0216
- Fraction bound (fraction fluorescent probe displaced) (MDM2 [1]; HPLC Fraction 16 of acylation reaction): -0.10
- Fraction bound (fraction fluorescent probe displaced) (MDM2 [1]; HPLC Fraction 17 of acylation reaction): -0.10
- Fraction bound (fraction fluorescent probe displaced) (MDM2 [1]; HPLC Fraction 18 of acylation reaction): -0.15
- Fraction bound (fraction fluorescent probe displaced) (MDM2 [1]; HPLC Fraction 19 of acylation reaction): -0.25
- Fraction bound (fraction fluorescent probe displaced) (MDM2 [1]; HPLC Fraction 20 of acylation reaction): -0.21
- IC50 (MDM2 [2]; average of 3 replicates, read-out: IC50 Average): 3.7 µM
- IC50 (MDM2 [2]; replicate 1, read-out: IC50 Replicate 1): 3.8 µM
- IC50 (MDM2 [2]; replicate 2, read-out: IC50 Replicate 2): 2 µM
- IC50 (MDM2 [2]; replicate 3, read-out: IC50 Replicate 3): 5.3 µM
- displacement of fluorescent peptide probe from MDM2 (MDM2 [2]; HPLC-purified macrocycles, FP competition): efficiently displaced
- anisotropy (MDM2 [2]; Log[Macrocycle] M -4.0): 39 and 34 and 33
- anisotropy (MDM2 [2]; Log[Macrocycle] M -4.3): 47 and 37 and 40
- anisotropy (MDM2 [2]; Log[Macrocycle] M -4.6): 50 and 42 and 45
- anisotropy (MDM2 [2]; Log[Macrocycle] M -4.9): 54 and 48 and 49
- anisotropy (MDM2 [2]; Log[Macrocycle] M -5.2): 60 and 47 and 53
- anisotropy (MDM2 [2]; Log[Macrocycle] M -5.5): 68 and 53 and 61
- anisotropy (MDM2 [2]; Log[Macrocycle] M -5.8): 73 and 55 and 63
- anisotropy (MDM2 [2]; Log[Macrocycle] M -6.1): 81 and 61 and 69
- anisotropy (MDM2 [2]; Log[Macrocycle] M -6.4): 87 and 68 and 75
- anisotropy (MDM2 [2]; Log[Macrocycle] M -6.7): 89 and 72 and 77
- anisotropy (MDM2 [2]; Log[Macrocycle] M -7.0): 92 and 75 and 82
- anisotropy (MDM2 [2]; Log[Macrocycle] M -7.3): 92 and 72 and 85
- anisotropy (MDM2 [2]; Log[Macrocycle] M -7.6): 97 and 81 and 87
- anisotropy (MDM2 [2]; Log[Macrocycle] M -7.9): 94 and 83 and 85
- anisotropy (MDM2 [2]; Log[Macrocycle] M -8.2): 94 and 79 and 89
- anisotropy (MDM2 [2]; Log[Macrocycle] M -8.5): 96 and 78 and 86
Compound: O=C(NC[C@@H]1NC(=O)[C@H]2CCCN(C2)C(=O)CCSSCCNC(=O)[C@H](Cc2c[nH]c3ccccc23)NC1=O)c1ccc(Cl)cc1 [M7]

- displacement of fluorescent probe from MDM2 (MDM2 [3]): 84%
- F-M10 displacement (values are anisotropy) (MDM2 [4]; Log[Inhibitor] M -4.0): 23 and 19
- F-M10 displacement (values are anisotropy) (MDM2 [4]; Log[Inhibitor] M -4.3): 19 and 11
- F-M10 displacement (values are anisotropy) (MDM2 [4]; Log[Inhibitor] M -4.6): 18 and 15
- F-M10 displacement (values are anisotropy) (MDM2 [4]; Log[Inhibitor] M -4.9): 18 and 10
- F-M10 displacement (values are anisotropy) (MDM2 [4]; Log[Inhibitor] M -5.2): 14 and 12
- F-M10 displacement (values are anisotropy) (MDM2 [4]; Log[Inhibitor] M -5.5): 15 and 12
- F-M10 displacement (values are anisotropy) (MDM2 [4]; Log[Inhibitor] M -5.8): 18 and 9
- F-M10 displacement (values are anisotropy) (MDM2 [4]; Log[Inhibitor] M -6.1): 17 and 10
- F-M10 displacement (values are anisotropy) (MDM2 [4]; Log[Inhibitor] M -6.4): 20 and 15
- F-M10 displacement (values are anisotropy) (MDM2 [4]; Log[Inhibitor] M -6.7): 24 and 19
- F-M10 displacement (values are anisotropy) (MDM2 [4]; Log[Inhibitor] M -7.0): 30 and 21
- F-M10 displacement (values are anisotropy) (MDM2 [4]; Log[Inhibitor] M -7.3): 40 and 26
- F-M10 displacement (values are anisotropy) (MDM2 [4]; Log[Inhibitor] M -7.6): 46 and 32
- F-M10 displacement (values are anisotropy) (MDM2 [4]; Log[Inhibitor] M -7.9): 52 and 42
- F-M10 displacement (values are anisotropy) (MDM2 [4]; Log[Inhibitor] M -8.2): 57 and 39
- F-M10 displacement (values are anisotropy) (MDM2 [4]; Log[Inhibitor] M -8.5): 57 and 42
- FP53 displacement (values are anisotropy) (MDM2 [4]; Log[Inhibitor] M -4.0): 35 and 39
- FP53 displacement (values are anisotropy) (MDM2 [4]; Log[Inhibitor] M -4.3): 34 and 40
- FP53 displacement (values are anisotropy) (MDM2 [4]; Log[Inhibitor] M -4.6): 35 and 36
- FP53 displacement (values are anisotropy) (MDM2 [4]; Log[Inhibitor] M -4.9): 31 and 36
- FP53 displacement (values are anisotropy) (MDM2 [4]; Log[Inhibitor] M -5.2): 32 and 39
- FP53 displacement (values are anisotropy) (MDM2 [4]; Log[Inhibitor] M -5.5): 31 and 40
- FP53 displacement (values are anisotropy) (MDM2 [4]; Log[Inhibitor] M -5.8): 30 and 37
- FP53 displacement (values are anisotropy) (MDM2 [4]; Log[Inhibitor] M -6.1): 32 and 36
- FP53 displacement (values are anisotropy) (MDM2 [4]; Log[Inhibitor] M -6.4): 31 and 40
- FP53 displacement (values are anisotropy) (MDM2 [4]; Log[Inhibitor] M -6.7): 42 and 51
- FP53 displacement (values are anisotropy) (MDM2 [4]; Log[Inhibitor] M -7.0): 51 and 55
- FP53 displacement (values are anisotropy) (MDM2 [4]; Log[Inhibitor] M -7.3): 54 and 63
- FP53 displacement (values are anisotropy) (MDM2 [4]; Log[Inhibitor] M -7.6): 60 and 67
- FP53 displacement (values are anisotropy) (MDM2 [4]; Log[Inhibitor] M -7.9): 60 and 65
- FP53 displacement (values are anisotropy) (MDM2 [4]; Log[Inhibitor] M -8.2): 66 and 67
- FP53 displacement (values are anisotropy) (MDM2 [4]; Log[Inhibitor] M -8.5): 63 and 67
Compound: O=C(/C=C/c1ccc2c(c1)OCO2)NC[C@@H]1NC(=O)[C@H]2CCCN(C2)C(=O)CCSSCCNC(=O)[C@H](Cc2c[nH]c3ccccc23)NC1=O [M10]

- F-M10 displacement (values are anisotropy) (MDM2 [4]; Log[Inhibitor] M -4.0): 71 and 53
- F-M10 displacement (values are anisotropy) (MDM2 [4]; Log[Inhibitor] M -4.3): 66 and 52
- F-M10 displacement (values are anisotropy) (MDM2 [4]; Log[Inhibitor] M -4.6): 66 and 55
- F-M10 displacement (values are anisotropy) (MDM2 [4]; Log[Inhibitor] M -4.9): 62 and 56
- F-M10 displacement (values are anisotropy) (MDM2 [4]; Log[Inhibitor] M -5.2): 69 and 55
- F-M10 displacement (values are anisotropy) (MDM2 [4]; Log[Inhibitor] M -5.5): 63 and 51
- F-M10 displacement (values are anisotropy) (MDM2 [4]; Log[Inhibitor] M -5.8): 63 and 55
- F-M10 displacement (values are anisotropy) (MDM2 [4]; Log[Inhibitor] M -6.1): 68 and 53
- F-M10 displacement (values are anisotropy) (MDM2 [4]; Log[Inhibitor] M -6.4): 65 and 54
- F-M10 displacement (values are anisotropy) (MDM2 [4]; Log[Inhibitor] M -6.7): 64 and 54
- F-M10 displacement (values are anisotropy) (MDM2 [4]; Log[Inhibitor] M -7.0): 64 and 51
- F-M10 displacement (values are anisotropy) (MDM2 [4]; Log[Inhibitor] M -7.3): 64 and 50
- F-M10 displacement (values are anisotropy) (MDM2 [4]; Log[Inhibitor] M -7.6): 67 and 53
- F-M10 displacement (values are anisotropy) (MDM2 [4]; Log[Inhibitor] M -7.9): 61 and 50
- F-M10 displacement (values are anisotropy) (MDM2 [4]; Log[Inhibitor] M -8.2): 66 and 47
- F-M10 displacement (values are anisotropy) (MDM2 [4]; Log[Inhibitor] M -8.5): 66 and 47
- FP53 displacement (values are anisotropy) (MDM2 [4]; Log[Inhibitor] M -4.0): 13 and 15
- FP53 displacement (values are anisotropy) (MDM2 [4]; Log[Inhibitor] M -4.3): 21 and 16
- FP53 displacement (values are anisotropy) (MDM2 [4]; Log[Inhibitor] M -4.6): 13 and 14
- FP53 displacement (values are anisotropy) (MDM2 [4]; Log[Inhibitor] M -4.9): 14 and 13
- FP53 displacement (values are anisotropy) (MDM2 [4]; Log[Inhibitor] M -5.2): 15 and 11
- FP53 displacement (values are anisotropy) (MDM2 [4]; Log[Inhibitor] M -5.5): 15 and 18
- FP53 displacement (values are anisotropy) (MDM2 [4]; Log[Inhibitor] M -5.8): 15 and 14
- FP53 displacement (values are anisotropy) (MDM2 [4]; Log[Inhibitor] M -6.1): 19 and 23
- FP53 displacement (values are anisotropy) (MDM2 [4]; Log[Inhibitor] M -6.4): 30 and 27
- FP53 displacement (values are anisotropy) (MDM2 [4]; Log[Inhibitor] M -6.7): 43 and 49
- FP53 displacement (values are anisotropy) (MDM2 [4]; Log[Inhibitor] M -7.0): 56 and 61
- FP53 displacement (values are anisotropy) (MDM2 [4]; Log[Inhibitor] M -7.3): 64 and 66
- FP53 displacement (values are anisotropy) (MDM2 [4]; Log[Inhibitor] M -7.6): 64 and 68
- FP53 displacement (values are anisotropy) (MDM2 [4]; Log[Inhibitor] M -7.9): 66 and 67
- FP53 displacement (values are anisotropy) (MDM2 [4]; Log[Inhibitor] M -8.2): 65
- FP53 displacement (values are anisotropy) (MDM2 [4]; Log[Inhibitor] M -8.5): 69 and 66
Compound: Nutlin

- competition with fluorescein conjugate of M10 for MDM2 binding (MDM2 [4]; FP competition experiment): did not compete
Compound: nutlin-3a [reference compound]
